Data on three compounds can be found in patent US20040038947A1, “Method of treating ischemia/reperfusion injury with nitroxyl donors” (The Gov. of the U.S. of America as represented by the Sec. …, priority 2002, published 2004).

Series [1] deals with Isolated rat hearts. The series can be described thus: Example 2: infarct size after ischemia/reperfusion, different set of isolated rat hearts. The note with it: same protocol as AS in Example 1, only one rat heart per intervention, FIG. 5. Here is the method:
FIG. 5 is a graph showing infarct size following 30 min of global ischemia and 30 min reperfusion for interventions in a different set of isolated rat hearts for interventions with control; ischemic preconditioning (IP); IPA/NO; AS; and DEA/NO.
To corroborate the data relative to myocardial injury, determined by LDH release, infarct areas were also assessed in a blinded fashion. At the end of the course (30 min reperfusion), each heart was rapidly removed from the perfusion apparatus, and the LV dissected into 2-3 mm circumferential slices. Following 15 min of incubation at 37° C. in 0.1% solution of nitro blue tetrazolium in phosphate buffer as described in Ma et al., “Opposite effects of nitric oxide and nitroxyl on postischemic myocardial injury,” Proc. Natl. Acad. Sci., 96:14617-14622 (1999), unstained necrotic tissue was separated from the stained viable tissue. The areas of viable and necrotic tissue were carefully separate by and independent observer (D. Mancardi, C. Penna, or R. Rastaldo) who was not aware of the origin of the hearts. The weight of the necrotic and non-necrotic tissues was then determined and the necrotic mass expressed as a percentage of total left ventricular mass.
The same methods as employed in Example 1 were used to assess the ischemia/reperfusion injury reducing effects of the nitroxyl donor IPA/NO. […]

The next series relates to isolated rat heart. The series can be described thus: Example 2: coronary perfusion pressure during reperfusion. The note with it: FIG. 6. Here is the method: FIG. 6 is a graph showing the coronary perfusion pressures for the IPA/NO intervention of FIG. 5 and an intervention in an isolated rat heart with a vehicle for the same protocol as was used with AS and vehicle in FIG. 1. IPA/NO is represented by diamonds; vehicle is represented by squares.
Isolated heart perfusion. Each animal was anesthetized with 1 g/kg urethane i.p. 10 min after heparin (2,500 U, i.m.) treatment. The chest was opened, and the heart was rapidly excised, placed in ice-cold buffer solution and weighed. Isolated rat hearts were attached to the perfusion apparatus and retrogradely perfused with oxygenated buffer solution at 37° C. The hearts were instrumented as previously described in Rastaldo et al., “P-450 metabolite of arachidonic acid mediates bradykinin-induced negative inotropic effect,” Am. […] Coronary perfusion pressure (CPP) and coronary flow were monitored with a second electromanometer and an electromagnetic flow-probe, respectively, both placed along the perfusion line. Left ventricular pressure, coronary flow and coronary perfusion pressure were recorded using a TEAC R-71 recorder, digitized at 1000 Hz and analyzed off-line with DataQ-Instruments/CODAS software, which allowed quantification of the maximum rate of increase of LVP during systole (dP/dtmax). […]

A short description of another series: Nitroxyl donation pH. It is filed as physicochemical. The note with it: donates from this pH to about 10. The text has this: “Nitroxyl donation pH” is the pH at which and above which a nitroxyl-donating compound donates nitroxyl.
Further, compounds are easily tested for nitroxyl donation with routine experiments. Although it is impractical to directly measure whether nitroxyl is donated, several tests are accepted for determining whether a compound donates nitroxyl. For example, the compound of interest can be placed in solution, for example in water, in a sealed container. After sufficient time for disassociation has elapsed, such as from several minutes to several hours, the headspace gas is withdrawn and analyzed to determine its composition, such as by gas chromatography and/or mass spectroscopy. […] Nitroxyl donation also can be detected by exposing the target donor to metmyoglobin (Mb^3+). Nitroxyl reacts with Mb^3+ to form an Mb^2+-NO complex, which can be detected by changes in the ultraviolet/visible spectrum or by Electron Paramagnetic Resonance (EPR). […]
Testing for nitroxyl donation in some cases is performed at a range of pHs to determine the nitroxyl donation pH of the nitroxyl-donating compound. […] After the lowest pH at which nitroxyl donation occurs in a first set of tests is found, additional tests can be performed with narrower ranges of pH around the first determined nitroxyl donation pH to obtain a more specific nitroxyl donation pH. […]

Series [2] deals with Isolated rat hearts. The series can be described thus: Pre-ischemic cardiac function of isolated perfused rat hearts (Table 1). The note with it: mean. Here is the method:
(§1) Isolated heart perfusion. Each animal was anesthetized with 1 g/kg urethane i.p. 10 min after heparin (2,500 U, i.m.) treatment. The chest was opened, and the heart was rapidly excised, placed in ice-cold buffer solution and weighed. Isolated rat hearts were attached to the perfusion apparatus and retrogradely perfused with oxygenated buffer solution at 37° C. The hearts were instrumented as previously described in Rastaldo et al., “P-450 metabolite of arachidonic acid mediates bradykinin-induced negative inotropic effect,” Am. J. Physiol., 280:H2823-H2832 (2001), and Paolocci et al. “cGMP-independent inotropic effects of nitric oxide and peroxynitrite donors: potential role for nitrosylation,” Am. J. Physiol., 279: H1982-H1988 (2000). The flow was maintained constant (9±2 mL/min/g wet weight) to reach a typical coronary perfusion pressure of 85-90 mm Hg. A constant proportion of 10% of the flow rate was applied by means of one of two perfusion pumps (Terumo, Tokyo, Japan) using a 50 mL syringe connected to the aortic cannula. Drug applications (see Experimental Protocols) were performed by switching from the syringe containing buffer alone to the syringe of the other pump containing the drug dissolved in the vehicle at a concentration 10× to the desired final concentration in the heart. A small hole in the left ventricular wall allowed drainage of the thebesian flow, and a polyvinyl-chloride balloon was placed into the left ventricle and connected to an electromanometer for recording of left ventricular pressure (LVP). The hearts were electrically paced at 280-300 bpm and kept in a temperature-controlled chamber (37° C.). Coronary perfusion pressure (CPP) and coronary flow were monitored with a second electromanometer and an electromagnetic flow-probe, respectively, both placed along the perfusion line. Left ventricular pressure, coronary flow and coronary perfusion pressure were recorded using a TEAC R-71 recorder, digitized at 1000 Hz and analyzed off-line with DataQ-Instruments/CODAS software, which allowed quantification of the maximum rate of increase of LVP during systole (dP/dtmax).
Hearts were perfused with Krebs-Henseleit solution gassed with 95% O2 and 5% CO2 of the following composition: 17.7 mM sodium bicarbonate, 127 mM NaCl, 5.1 mM KCl, 1.5 mM CaCl2, 1.26 mM MgCl2, 11 mM D-glucose, supplemented with 5 μg/mL lidocaine.
(§2) Experimental Protocols. Hearts were allowed to stabilize for 30 min, and baseline parameters were recorded. Typically, coronary flow was adjusted within the first 10 min and kept constant from thereon. After 30 min stabilization, hearts were randomly assigned to one of the treatment groups reported below (n=12 in each group), and then subjected to 30 min global, no-flow ischemia, followed by 30 min of reperfusion (I/R) (see FIG. 1). Pacing of the hearts was stopped at the beginning of the ischemic period and restarted after the third minute of reperfusion.
(§3) Hearts in the control group (Group 1) were perfused with buffer for an additional 29 min after stabilization. Group 2 hearts were exposed to AS (1 μM final concentration) for 19 min followed by a 10 min buffer wash-out period. Group 3 hearts were exposed to DEA/NO (0.5 μM final concentration) administered in the same manner as AS. The concentration of DEA/NO was only one half of that of AS since DEA/NO releases up to two moles of […] per mole of donor molecule. In Group 4, a train of three cycles of 3 min global ischemia followed by 5 min of reperfusion was applied after the stabilization phase, followed by a final 10 min buffer wash-out period (IPC protocol).
(§4) Group 5 hearts were exposed to the vehicle (NaOH, final concentration 100 nM) used to dissolve both AS and DEA/NO. To test the influence of switching the myocardial redox state on AS-induced effects, in an additional group of hearts (Group 6) AS was co-infused with N-acetyl-L-cysteine (NAC, 4 mM final concentration). For comparison, hearts were also exposed to NAC alone (Group 7). […]

Series [3] concerns Isolated rat hearts. The series can be described thus: Myocardial injury: infarct area by nitro blue tetrazolium staining. The method, then: as §2, §3, §4
To corroborate the data relative to myocardial injury, determined by LDH release, infarct areas were also assessed in a blinded fashion. […] The weight of the necrotic and non-necrotic tissues was then determined and the necrotic mass expressed as a percentage of total left ventricular mass.

For series [4], the system named is Isolated rat hearts. As to the kind of experiment: Ventricular function (contracture, contractile recovery) of isolated rat hearts in 30 min global ischemia / 30 min reperfusion. The method, then:
as §1, §2, §3
Group 5 hearts were exposed to the vehicle (NaOH, final concentration 100 nM) used to dissolve both AS and DEA/NO. […]

In series [5] the test system is Isolated rat hearts. The series can be described thus: Myocardial injury: LDH release in coronary effluent during reperfusion. The conditions noted are these: pre-treatment; control 686±14 U/g wet wt; FIG. 4A. The method, then: as §2
Hearts in the control group (Group 1) were perfused with buffer for an additional 29 min after stabilization. Group 2 hearts were exposed to AS (1 μM final concentration) for 19 min followed by a 10 min buffer wash-out period. Group 3 hearts were exposed to DEA/NO (0.5 μM final concentration) administered in the same manner as AS. The concentration of DEA/NO was only one half of that of AS since DEA/NO releases up to two moles of […] per mole of donor molecule. […]
Assessment of myocardial injury. […] LDH release was measured as previously described by Bergmeyer & Bernt, “Methods of Enzymatic Analysis,” Verlag Chemie (1974). Data are expressed as cumulative values for the entire reflow period.
Background: LDH leaks from cells whose membrane has failed.

Setting [6] is: End of stabilization period (baseline of the group, before treatment).
Setting [7] is: Post-treatment (pre-ischemic), AS 1 μM, DEA/NO 0.5 μM, NAC 4 mM, 19 min then 10 min wash-out.

As for `CC(C)N[N+]([O-])=N[O-].[Na+]` [IPA/NO, isopropylamine/NO], in the series on Isolated rat hearts [1], the “Infarct size reduction as compared to control” value was “about 36%”. In addition, the “Coronary perfusion pressure during reperfusion” value in the series with isolated rat heart is recorded as “returned to normal”. Moreover, the “Nitroxyl donation pH (pH at and above which nitroxyl is donated)” value in the series “Nitroxyl donation pH” is given as “about 5.5”.

With `CC(=O)N[C@@H](CS)C(=O)O` [NAC, N-acetyl-L-cysteine], in the series on Isolated rat hearts [2] (setting [6]), the “CPP (coronary perfusion pressure)” value was found to be 88 mmHg, the DP/dtmax came to 2760 mmHg/s, the “Developed LVP” value was determined as 89 mmHg and the “LVEDP (left ventricular end-diastolic pressure)” value came to 8 mmHg. In the series on Isolated rat hearts [2] (setting [7]), the “CPP (coronary perfusion pressure)” value is listed as 88 mmHg, the DP/dtmax was found to be 2481 mmHg/s, the “Developed LVP” value was found to be 86 mmHg and the “LVEDP (left ventricular end-diastolic pressure)” value amounted to 10 mmHg. Moreover, in the series on Isolated rat hearts [3] (30 min global ischemia, 30 min reperfusion, control 39±2%, FIG. 4), the “Infarcted area, expressed as a percentage of the left ventricle” value is 45+2%.

Take `CCN(CC)/[N+]([O-])=N/O.CCNCC` [DEA/NO, diethylamine diazeniumdiolate]: in the series on Isolated rat hearts [2] (setting [6]), the “CPP (coronary perfusion pressure)” value stood at 91 mmHg, the DP/dtmax is on record as 3047 mmHg/s, the “Developed LVP” value is given as 98 mmHg and the “LVEDP (left ventricular end-diastolic pressure)” value amounted to 8 mmHg. Also, in the series on Isolated rat hearts [2] (setting [7]), the “CPP (coronary perfusion pressure)” value stood at 90 mmHg, the DP/dtmax was 2976 mmHg/s, the “Developed LVP” value was determined as 99 mmHg and the “LVEDP (left ventricular end-diastolic pressure)” value worked out at 9 mmHg. For the same compound, the “Maximal increment of LVEDP during reperfusion” value in the series on Isolated rat hearts [4] (compared to control, vehicle, NAC and NAC+AS treated hearts (p<0.05), FIG. 2B) was “significantly lower”. For the same compound, in the series on Isolated rat hearts [4] (vs control group, p=0.08 for dP/dtmax, p=0.07 for developed LVP, DEA/NO 0.5 μM), the “Recovering contractile function (developed LVP, dP/dtmax) after ischemia/reperfusion” value was “less effective”. In the series with Isolated rat hearts [5], the “LDH release into the coronary venous effluent during reperfusion” value was “significantly reduced”. Also, the “Protective effect: infarct size change vs controls” value in the series on Isolated rat hearts [3] (DEA/NO 0.5 μM pre-ischemic, p<0.05 vs controls, weaker than AS or IPC) is −30%.
